Measured values from patent US20100029654A1, “CARDIOVASCULAR COMPOSITIONS AND USE OF THE SAME FOR THE TREATMENT OF ALZHEIMER'S DISEASE” (MOUNT SINAI SCHOOL OF MEDICINE, priority 2006, published 2010).
Where “and” joins values, the source holds several entries; their conditions need not be identical. Equal entries are not always repeated. Structures can show the parent of a compound that is named as a salt. Where two headings read alike, the source gives them in different places.

Legend:
Aβ1-40 = Aβ1-40 content in conditioned medium of primary cortico-hippocampal neuron cultures from Tg2576 mice (ELISA; primary and secondary dose-response screening); type: cell-based, mouse; settings: for activity at 100 µM / EC50: Mus musculus; for activity at 100 µM / Ab1-40 (% of ctl): drug 100 μM; for activity at 100 µM: read-out: Ab1-40 (% of ctl); for reduced Aβ1-40: <85% of ctl
Method in brief: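 Primary cortico-hippocampal neurons from embryonic Tg2576 mice were plated at 1.0×10^5 cells per well on poly-D-lysine-coated 96-well plates in Neurobasal with 2% B27, 0.5 mM L-glutamine and 1% penicillin-streptomycin. Cultures received drug in 1% DMSO, and Aβ1-40 in the conditioned medium was measured by BioSource ELISA 24 hours after treatment, relative to vehicle controls.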

Aβ1-42 [1] = test: Aβ1-42 content in conditioned medium of primary cortico-hippocampal neuron cultures from Tg2576 mice (ELISA; primary and secondary dose-response screening); type: cell-based, mouse; settings: for activity at 100 µM: Mus musculus, Neuron, 24 h, read-out: Ab1-42 (% of ctl); for activity at 100 µM / Ab1-42 (% of ctl): drug 100 μM; for reducing Aβ1-42: <85% of ctl
Method in brief: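 This screen tested cardiovascular drugs for Aβ-lowering in Tg2576 embryonic cortico-hippocampal neuron cultures plated at 1.0×10^5 cells per well in poly-D-lysine-coated 96-well plates with Neurobasal/B27 medium. Drugs at 100 μM were added directly to the medium in duplicate, with 1% DMSO alone as the control. Conditioned medium was then collected, and its Aβ1-42 level was quantified with BioSource ELISA kits.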

Aβ1-42 [2] = test: as above; type: cell-based, mouse; settings: Mus musculus; for EC50: Neuron; for activity at 100 µM: primary screening, drug 100 μM, Tg2576 neuron cultures, table sorted by Aβ1-42, read-out: Ab1-42 (% of ctl)
[3] = tested on: primary cortico-hippocampal neuron cultures; test: MTT in primary screening
[4] = tested on: primary cortico-hippocampal neuron cultures; test: lactate dehydrogenase (LDH) activity assay in parallel neuron cultures; settings: for LDH (at 5F-5 M): Table IV; for LDH at E-5M % of change: drug at E-5M
Procedure: For in vitro treatments drugs available from “The Spectrum Collection” in stocks of 10 mM in DMSO were applied directly to cultures to the desired concentrations (final 1% DMSO); control primary neuron cultures from Tg2576 embryos were treated with vehicle resulting in a final 1% DMSO.
Cell viability was assessed using a commercial available LDH assay kit according to the manufacture's instruction (Promega).

[5] = Neuron, 24 h, Primary Screening, table sorted by Aβ1-40
[6] = Neuron, 24 h, primary screening, Tg2576 neuron cultures, table sorted by Aβ1-42
[7] = Neuron, Table IV, dose-response 0.01-100 μM, read-out: EC50 (M): Ab-lowering activity Abeta1-40
[8] = Neuron, secondary dose-response screening 0.01-100 μM, 24 hours, read-out: EC50 (molar) Aβ1-40
[9] = Primary Screening, table sorted by Aβ1-40
[10] = primary screening, Tg2576 neuron cultures, table sorted by Aβ1-42
[11] = 24 h, secondary dose-response screening 0.01-100 μM, 24 hours, read-out: EC50 (molar) Aβ1-42
[12] = Table IV, dose-response 0.01-100 μM, read-out: EC50 (M): Ab-lowering activity
[13] = primary screening, table sorted by Aβ1-42
[14] = 24 h, primary screening, Tg2576 neuron cultures, table sorted by Aβ1-42
[15] = Primary Screening, table sorted by Aβ1-40, Hydrochloride
[16] = primary screening, table sorted by Aβ1-42, Hydrochloride

Compound | activity at 100 µM (Aβ1-40; [5]) [%] | activity at 100 µM (Aβ1-40; [6]) [%] | EC50 (Aβ1-40; [8]) [M] | reduced Aβ1-40 (Aβ1-40; primary screening) | activity at 100 µM (Aβ1-42 [1]; [9]) [%] | activity at 100 µM (Aβ1-42 [1]; [10]) [%] | reducing Aβ1-42 (Aβ1-42 [1]; primary screening) | EC50 (Aβ1-42 [2]; [11]) [M] | MTT (% of ctl) [3, 9] | MTT (% of ctl) [3, 13] | LDH (% of ctl) [4, 9] | LDH (% of ctl) [4, 13] | activity at 100 µM (Aβ1-40; [14]) [%] | Ab1-40 (% of ctl) (Aβ1-40; [9]) | Ab1-42 (% of ctl) (Aβ1-42 [1]; [9]) | activity at 100 µM (Aβ1-42 [2]; 24 h) [%] | LDH at E-5M % of change [4] [%] | further results
COc1ccccc1OCCNCC(O)COc1cccc2[nH]c3ccccc3c12 (stereo not shown) [Carvedilol] | 38.3 | 38.3 | 6.61e-05 | reduced Aβ1-40 | 30.8 | 30.8 | useful in reducing Aβ1-42 | 0.000132 | 66.7 % of ctl | 66.7 % of ctl | 148.6 % of ctl | 148.6 % of ctl | – | – | – | – | – | EC50 (Aβ1-40; [7]): 6.61e-05 M; EC50 (Aβ1-42 [2]; 24 h, conditioned medium of primary cortico-hippocampal neuron cultures from Tg2576 embryos, 24 hours after treatment, relative to vehicle (1% DMSO) control, read-out: EC50 (molar) Aβ1-42): 0.000132 M; EC50 (Aβ1-42 [2]; [12]): 0.000132 M; LDH (at 5F-5 M) [4]: no change
CCN1C[C@]2(C)CC[C@H](OC)[C@@]34C1[C@]1(OCO[C@@]15C[C@H](OC)[C@H]1C[C@]3(O)[C@@H]5[C@H]1OC)[C@@H](OC(C)=O)[C@H]24 [Deltaline] | – | – | – | – | – | – | – | – | 99.4 % of ctl | 99.4 % of ctl | 118.9 % of ctl | 118.9 % of ctl | 121 | 121.0 % of ctl | 143.0 % of ctl | 143 | – | –
C[C@H]1O[C@@H](O[C@H]2[C@@H](O)C[C@H](O[C@H]3[C@@H](O)C[C@H](O[C@H]4CC[C@@]5(C)[C@H](CC[C@@H]6[C@@H]5CC[C@]5(C)[C@@H](C7=CC(=O)OC7)CC[C@]65O)C4)O[C@@H]3C)O[C@@H]2C)C[C@H](O)[C@@H]1O [Digitoxin] | – | – | – | reduced Aβ1-40 | – | – | – | – | 86.0 % of ctl | 86.0 % of ctl | 106.4 % of ctl | 106.4 % of ctl | 68.3 | 68.3 % of ctl | 92.9 % of ctl | 92.9 | – | –
OCCN(CCO)c1nc(N2CCCCC2)c2nc(N(CCO)CCO)nc(N3CCCCC3)c2n1 [Dipyridamole] | 72.2 | 72.2 | 1.66e-05 | reduced Aβ1-40 | 62.6 | 62.6 | useful in reducing Aβ1-42 | 1.24e-06 | 102.7 % of ctl | 102.7 % of ctl | 107.5 % of ctl | 107.5 % of ctl | – | – | – | – | 6.4 | –
CC(C)N(CCC(C(N)=O)(c1ccccc1)c1ccccn1)C(C)C (stereo not shown) [Disopyramide Phosphate] | 83.5 | 83.5 | – | reduced Aβ1-40 | 66.3 | 66.3 | useful in reducing Aβ1-42 | 5.33e-05 | 71.2 % of ctl | 71.2 % of ctl | 125.8 % of ctl | 125.8 % of ctl | – | – | – | – | −3.7 | EC50 (Aβ1-40; Neuron, 24 h, read-out: EC50 (molar) Aβ1-40): 7.78e-10 M
C=C(CC)C(=O)c1ccc(OCC(=O)O)c(Cl)c1Cl [Ethacrynic Acid] | 4.4 | 4.4 | 2.1e-05 | reduced Aβ1-40 | 1.8 | 1.8 | useful in reducing Aβ1-42 | 2.25e-05 | 109.9 % of ctl | 109.9 % of ctl | 101.5 % of ctl | 101.5 % of ctl | – | – | – | – | 10.0 | –
CC(NCCC(c1ccccc1)c1ccccc1)c1ccccc1 (stereo not shown) [Fendiline Hydrochloride] | 7.9 | 7.9 | 1.25e-05 | reduced Aβ1-40 | 26.2 | 26.2 | useful in reducing Aβ1-42 | 4.2e-05 | 7.7 % of ctl | 7.7 % of ctl | 1881.4 % of ctl | 1881.4 % of ctl | – | – | – | – | −3.0 | –
C[N+](C)(C)CCCCCC[N+](C)(C)C [Hexamethonium Bromide] | – | – | – | reduced Aβ1-40 | – | – | useful in reducing Aβ1-42 | – | 92.1 % of ctl | 92.1 % of ctl | 99.7 % of ctl | 99.7 % of ctl | 84.8 | 84.8 % of ctl | 72.6 % of ctl | 72.6 | – | –
NNc1nncc2ccccc12 [Hydralazine Hydrochloride] | 66.1 | 66.1 | 9.29e-06 | reduced Aβ1-40 | 63.2 | 63.2 | useful in reducing Aβ1-42 | 1.04e-05 | 95.7 % of ctl | 95.7 % of ctl | 101.1 % of ctl | 101.1 % of ctl | – | – | – | – | −1.2 | EC50 (Aβ1-40; [7]): 9.29e-06 M; EC50 (Aβ1-42 [2]; [12]): 1.04e-05 M; LDH (at 5F-5 M) [4]: no change
CC(COc1ccccc1)NC(C)C(O)c1ccc(O)cc1 (stereo not shown) [Isoxsuprine Hydrochloride] | 78.3 | 78.3 | – | reduced Aβ1-40 | 83.7 | 83.7 | useful in reducing Aβ1-42 | 8.07e-06 | – | – | – | – | – | – | – | – | 5.0 | EC50 (molar) Aβ1-40 (Aβ1-40; secondary dose-response screening 0.01-100 μM, 24 hours): no fit; MTT (% of ctl) [3, 15]: 99.8 % of ctl and 93.1 % of ctl; MTT (% of ctl) [3, 16]: 99.8 % of ctl and 93.1 % of ctl; LDH (% of ctl) [4, 15]: 106.2 % of ctl and 107.7 % of ctl; LDH (% of ctl) [4, 16]: 106.2 % of ctl and 107.7 % of ctl
